This is an account of results in US20250255847A1, “[…]s: Novel Drugs for Triple Negative Breast Cancer” (SIMMARON RSEARCH INC, priority 2024, published 2025).

Series [1] can be described thus: Health vitals and open-field test in PDX mice. The series is classed as in vivo, mouse. Particulars: end of study, 2 mg/Kg Bwt i.p. On the procedure: FIG. 12 illustrates an embodiment of the present invention and illustrates SIM-1 and SIM-2 arrest the growth of human TNBC tumor in patient-derived xenograft mouse model. TM00096 tumor (origin of invasive ductal carcinoma isolated from a person) was seeded in the flank of 6-week-old female SCID mice by Jackson Laboratory and then shipped to our research facility. Once the tumor reached ˜4 mm in size (˜30 mm^3 in volume), n=6 mice/group were treated by vehicle (5% DMSO), SIM-1 and SIM-2 (2 mg/Kg Bwt mixed with 5% DMSO) via i.p. for 2 weeks in every alternate day. The tumor size was monitored accordingly during the treatment and two more weeks after the last dose to evaluate the recurrence. […] (B) Tumor size was measured every alternate day for 4 weeks by a digital caliper and then the volume was calculated using the formula 0.5*Length*Width^2. […] (D) Body weight was recorded during the course of the study to monitor the adverse metabolic outcome due to the drug administration. (E) The heart rate was monitored at 0-, 7-, 14-, and 28-days post SIM-1 and SIM-2 treatments by MouseStat Jr console (Kent Scientific) as per the manufacturer's instruction. (F) At the end of the study, the gross motor performance was recorded for n=6 (i) vehicle, (ii) SIM-1-, and (iii) SIM-2-treated mice. […]

In series [2] the test system is MDA-MB-468 TNBC cells. In words: LDH release cytotoxicity assay in MDA-MB-468 cells. The series is classed as cell-based, human. Particulars: 48 hrs; for EC50: Homo sapiens, MDA-MB-468, LDH release, read-out: CT50 (half-response of cytotoxicity). Here is the method: FIG. 11 illustrates an embodiment of the present invention and illustrates SIM-1 and SIM-2 induced apoptosis in MDA-MB-468 TNBC cells, but not HMEC control cells. MDA-MB-468 cells were treated with increasing doses of (A) SIM-1 and (B) SIM-2 for 48 hrs followed by lactate dehydrogenase (LDH) release assay in the supernatants. The result was offset with cell-bound LDH and presented as a percent of DMSO control as discussed under method section. Half-maximal cytotoxicity or CT50 analyses were performed plotting maximum response as an index of increasing doses of (C) SIM-1 and (D) SIM-2. AnnexinV (green) and propidium iodide (red) dual-labeling were performed to evaluate apoptotic response in MDA-MB-468 cells once treated with increasing doses of (E) SIM-1 and (F) SIM-2 for 24 hrs. Nuclei were stained with DAPI. TUNEL assay was performed in MDA-MB-468 cells after treatment with 25 nM of (G) SIM-1. Brown-colored TUNEL bodies were visualized at cresyl violet-stained blue nuclei. (H) The number of TUNEL bodies were counted as a percent of 100 cresyl violet-stained blue cells. Ten independent images were counted for the quantification study. Similarly, SIM-2 was assessed for (I) TUNEL and (J) subsequent quantification analyses. One-way ANOVA was performed to test the significance of mean between groups at **p<0.01 and ****p<0.0001. (K) LDH release assay was performed in non-tumor origin human mammary epithelial cells (HMEC) once treated with increasing doses of SIM-1 and SIM-2 for 48 hrs. Ns=no significance. (L) Annexin V (green) and propidium iodide (red) staining was performed in 25 nM SIM-1- and SIM-2-treated HMEC cells. Nuclei were stained with DAPI. Results are confirmed after three different experiments.
LDH Assay. LDH Assay was performed as per manufacturer's instructions (Cat #: 2570393; Vendor: Thermo Fisher Scientific). MDA-MB-468 and HMEC cells were treated with SIMPYRA-1 and SIMPYRA-2 at doses of 2 nM, 5 nM, […] 25 nM. Each dose was measured in triplicates. After 48 hours of incubation at 37° C., 50 μL of soup from each well was harvested and transferred into a new 96 well plate. Each well was treated with 50 μL of reaction mix (Substrate Mixture+deionized water+Assay Buffer). The reaction was stopped with 50 μL of Stop Solution. The plate was read at 490 nm (background at 680 nm).
This example provides a representative experiment that studies if SIM-1 and SIM-2 promoted the death of TNBC cells. The following experiments were adopted to confirm the apoptosis of TNBC cells. […] During apoptosis, phosphatidyl serine of the plasma membrane flips from the inner to the outer membrane which can be detected by Annexin V labeling, whereas PI stains the nucleus of a cell with compromised integrity of the plasma membrane. […]
For orientation: LDH leaks from cells whose membrane has failed.

In the case of `CCOC(=O)c1c(NC(C)=O)sc2c(Cl)c(/C=N/O)ccc12` [SIM-2, ethyl 2-acetamido-7-chloro-6-(hydroxyiminomethyl)-1-benzothiophene-3-carboxylate], the “open-field test: gross movement, total distance traveled, average speed” value in series [1] is listed as “did not show any adverse outcome”. In series [2], the “concentration of maximum cell death (LDH release)” value was determined as 20 nM and the EC50 is 18.3 nM.
As to `O=C(O)CCC(=O)NCc1csc2ccc(Cl)cc12` [SIM-1, 4-[(5-chloro-1-benzothiophen-3-yl)methylamino]-4-oxobutanoic acid], the “open-field test: gross movement, total distance traveled, average speed” value in series [1] is reported as “did not show any adverse outcome”. Also, in series [2], the “concentration of maximum cell death (LDH release)” value was 20 nM and the EC50 turned out to be 20.8 nM.
